US7569337B2, “Coumarines useful as biomarkers” (Novartis AG, priority 2002, dated 2009)

- melting point: 290 °C (dec.)
Compound: O=c1oc2cc3c(cc2cc1-c1cn2cc(Cl)ccc2n1)CCCN3CCF [Example 2, 3-(6-Chloro-imidazo[1,2-a]pyridin-2-yl)-8-(2-fluoro-ethyl)-5,6,7,8-tetrahydro-1-oxa-8-aza-anthracen-2-one]
